Reference: patent US6693189B2, “Materials and method for treating or preventing pathogenic fungal infection” (Ariad Gene Therapeutics, Inc., priority 1996, dated 2004)
Read-outs that look alike come from different tables or passages of the source.

Experiments:
[1] = molecular target: human FKBP12 (Homo sapiens, UniProt P62942); assay: competitive fluorescence polarization (FP) FKBP binding assay; details: for fold loss in affinity (vs rapamycin) / fold loss in affinity (cf rapamycin): =IC50/IC50 of rapamycin; for fold loss in affinity (vs rapamycin): C24 oximes; for fold loss in affinity (cf rapamycin): C7 rapalogs
Sequence of human FKBP12 (P62942 whole entry): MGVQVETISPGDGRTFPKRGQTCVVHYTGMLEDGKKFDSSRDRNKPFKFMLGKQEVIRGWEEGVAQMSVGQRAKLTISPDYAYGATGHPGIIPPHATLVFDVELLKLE
Description: Serial 10-fold dilutions of each analog were prepared in 100% ethanol in glass vials and stored on ice. All other manipulations were performed at room temperature. […] Finally, a probe solution was prepared containing 10 nM AP1491 in 0.1% ethanol/FP buffer, and 100 μl added to each well with mixing.
The plates were stored covered in the dark for approximately 30 min to permit equilibration and then the fluorescence polarization of the sample in each well read on a Jolley FPM-2 FP plate reader (Jolley Consulting and Research, Inc., Grayslake, Ill.) in accordance with the manufacturer's recommendations. The mean polarization (mP units) for each competitor concentration was usually converted to % total binding by reference to the control values and plotted (y) vs. log molar final concentration of competitor (x). Non-linear least square analysis was used to fit the curve and extract the IC50 using the following equation:
y=M1+(M4−M1)/(1+exp(M2*(M3−x)))
where M3 is the IC50. For incomplete curves the IC50 was determined by interpolation.

[2] = test system: Cryptococcus neoformans clinical isolates; assay: broth macrodilution antifungal assay, Cryptococcus neoformans; assay type: cell-based; details: ratio of relative antifungal to relative immunosuppressive activity
[3] = test system: Aspergillus fumigatus clinical isolates; assay: broth macrodilution antifungal assay, Aspergillus fumigatus; assay type: cell-based; details: III = Asp fumigatus; ratio of relative antifungal to relative immunosuppressive activity
[4] = test system: Candida albicans clinical isolates; assay: broth macrodilution antifungal assay, C. albicans; assay type: cell-based; details: ratio of relative antifungal to relative immunosuppressive activity
[5] = read-out: FKBP wt FP binding assay IC50, rapamycin C24 oximes, competition with fluoresceinated FK506 probe AP1491

SMILES	fold loss in affinity (vs rapamycin) [1]	IC50 [1, 5]	fold loss in affinity (cf rapamycin) [1]	also measured
CCON=C1CC(C(C)CC2CCC(O)C(OC)C2)OC(=O)C2CCCCN2C(=O)C(=O)C2(O)OC(CCC2C)CC(OC)C(C)=CC=CC=CC(C)CC(C)C(=O)C(OC)C(O)C(C)=CC1C (stereo not drawn) [Compound 7, Rapamycin (E and Z)-24-(O-ethyloxime)]	1287	2.96 µM		
CO[C@H]1C[C@@H]2CC[C@@H](C)[C@@](O)(O2)C(=O)C(=O)N2CCCC[C@H]2C(=O)O[C@H]([C@H](C)C[C@@H]2CC[C@@H](O)[C@H](OC)C2)C/C(=N/OCc2ccccc2)[C@H](C)/C=C(\C)[C@@H](O)[C@@H](OC)C(=O)[C@H](C)C[C@H](C)/C=C/C=C/C=C/1C [Compound 11, Rapamycin (E and Z)-24-(O-benzyloxime)]	3627			IC50 [1]: 8.34 µM
COC1CC2CCC(C)C(O)(O2)C(=O)C(=O)N2CCCCC2C(=O)OC(C(C)CC2CCC(O)C(OC)C2)CC(=NOCc2ccccc2)C(C)C=C(C)C(O)C(OC)C(=O)C(C)CC(C)C=CC=CC=C1C (stereo not drawn) [Compound 12, Rapamycin (E and Z)-24-(O-benzyloxime)]	616	1.42 µM		
COC1CC2CCC(C)C(O)(O2)C(=O)C(=O)N2CCCCC2C(=O)OC(C(C)CC2CCC(O)C(OC)C2)CC(=NOC(C)(C)C)C(C)C=C(C)C(O)C(OC)C(=O)C(C)CC(C)C=CC=CC=C1C (stereo not drawn) [Compound 19]	>13043	> 30 µM		
CCOC1C[C@@H]2CC[C@@H](C)[C@@](O)(O2)C(=O)C(=O)N2CCCC[C@H]2C(=O)O[C@H]([C@H](C)C[C@@H]2CC[C@@H](O)[C@H](OC)C2)CC(=O)[C@H](C)/C=C(\C)[C@@H](O)[C@@H](OC)C(=O)[C@H](C)C[C@H](C)/C=C/C=C/C=C/1C (stereo partly drawn) [Compound 27]			1.1	
CCOC1C[C@@H]2CC[C@@H](C)[C@@](O)(O2)C(=O)C(=O)N2CCCC[C@H]2C(=O)O[C@H]([C@H](C)C[C@@H]2CC[C@@H](O)[C@H](OC)C2)CC(=O)[C@H](C)/C=C(\C)[C@@H](O)[C@@H](OC)C(=O)[C@H](C)C[C@H](C)/C=C/C=C/C=C/1C (stereo partly drawn) [Compound 28]			1.6	
COC1CC(CC(C)C2CC(=O)C(C)C=C(C)C(O)C(OC)C(=O)C(C)CC(C)C=CC=CC=C(C)C(c3ccc(C)s3)CC3CCC(C)C(O)(O3)C(=O)C(=O)N3CCCCC3C(=O)O2)CCC1O (stereo not drawn) [Compound 36]			1.6	
COC1CC(CC(C)C2CC(=O)C(C)C=C(C)C(O)C(OC)C(=O)C(C)CC(C)C=CC=CC=C(C)C(c3ccc(C)s3)CC3CCC(C)C(O)(O3)C(=O)C(=O)N3CCCCC3C(=O)O2)CCC1O (stereo not drawn) [Compound 37]			1.9	
CO[C@H]1C[C@@H]2CC[C@@H](C)[C@@](O)(O2)C(=O)C(=O)N2CCCC[C@H]2C(=O)O[C@H]([C@H](C)C[C@@H]2CC[C@@H](O)[C@H](OC)C2)CC(=O)[C@H](C)/C=C(\C)[C@@H](O)[C@@H](OC)C(=O)[C@H](C)C[C@H](C)/C=C/C=C/C=C/1C [rapamycin, Rapamycin]				AF/IS II [2]: 1; AF/IS III [3]: 1; AF/IS I [4]: 1
